{
  "source": "ChEMBL document CHEMBL4145624",
  "about": "“MDN-0185, an Antiplasmodial Polycyclic Xanthone Isolated from Micromonospora sp. CA-256353” (J Nat Prod, 2018)",
  "tested_on": "Plasmodium falciparum",
  "assay": "Antiplasmodial activity against late-ring/early trophozoite intraerythrocytic stage of synchronized Plasmodium falciparum 3D7 after 72 hrs by LDH assay",
  "format": "functional, organism-based",
  "settings": "3D7, 72 h",
  "data": [
    {"smiles": "Cc1cc2c(c(=O)[nH]1)C(=O)[C@]1(O)c3c(O)c4c(c5c3[C@@H](C[C@@H]1C2=O)OCO5)O[C@@H]1[C@H](O)C=CC[C@H]1C4=O", "values": [
      {"measurement": "IC50", "result": 9, "unit": "nM"}
    ]}
  ]
}
